The supplement of paper PMC10307832

Tests used:
Experiment in all cases: relative viability (nuclei count vs DMSO), 5 days (fraction); higher = more cells survive
BEN = system: BEN
Method in brief: (§1)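 Relative viability is defined as nuclei in treated wells over nuclei in vehicle wells. Duplicate plates were run and medians reported. Lung cancer cell lines in 1536-well plates were dosed by pin tool one day after seeding, with one drug or with a fixed anchor-drug dose plus five library-drug doses (not always all listed) in √10 steps, and nuclei were counted after 5 days.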

EKVX = system: EKVX
Method in brief: as §1

HARA = system: HARA
Method in brief: as §1

HCC-366 = system: HCC-366
Method in brief: as §1

HCC-827 = system: HCC-827
Method in brief: as §1

LC-2-ad = system: LC-2-ad
Method in brief: as §1

LOU-NH91 = system: LOU-NH91
Method in brief: as §1

NCI-H1355 = system: NCI-H1355
Method in brief: as §1

NCI-H1437 = system: NCI-H1437
Method in brief: as §1

NCI-H1734 = system: NCI-H1734
Method in brief: as §1

NCI-H1792 = system: NCI-H1792
Method in brief: as §1

NCI-H2009 = system: NCI-H2009
Method in brief: as §1

NCI-H2087 = system: NCI-H2087
Method in brief: as §1

NCI-H2170 = system: NCI-H2170
Method in brief: as §1

NCI-H2228 = system: NCI-H2228
Method in brief: as §1

NCI-H2405 = system: NCI-H2405
Method in brief: as §1

NCI-H596 = system: NCI-H596
Method in brief: as §1

NCI-H647 = system: NCI-H647
Method in brief: as §1

NCI-H661 = system: NCI-H661
Method in brief: as §1

SK-LU-1 = system: SK-LU-1
Method in brief: as §1

SK-MES-1 = system: SK-MES-1
Method in brief: as §1

SMILES: CC1(C)CCC(c2ccc(Cl)cc2)=C(CN2CCN(c3ccc(C(=O)NS(=O)(=O)c4ccc(N[C@H](CCN5CCOCC5)CSc5ccccc5)c(S(=O)(=O)C(F)(F)F)c4)cc3)CC2)C1 [Navitoclax] + C[C@@H](Oc1cc(-c2cnn(C3CCNCC3)c2)cnc1N)c1c(Cl)ccc(F)c1Cl [Crizotinib] (partner 1 µM)
- relative viability (BEN; first compound 0.005 µM): 0.878
- relative viability (BEN; first compound 0.01581 µM): 0.897
- relative viability (BEN; first compound 0.05 µM): 0.936
- relative viability (BEN; first compound 0.1581 µM): 0.944
- relative viability (BEN; first compound 0.5 µM): 0.662
- relative viability (EKVX; first compound 0.005 µM): 1
- relative viability (EKVX; first compound 0.01581 µM): 1.16
- relative viability (EKVX; first compound 0.05 µM): 1.08
- relative viability (EKVX; first compound 0.1581 µM): 0.93
- relative viability (EKVX; first compound 0.5 µM): 0.888
- relative viability (HARA; first compound 0.005 µM): 1.09
- relative viability (HARA; first compound 0.01581 µM): 1.16
- relative viability (HARA; first compound 0.05 µM): 0.944
- relative viability (HARA; first compound 0.1581 µM): 0.907
- relative viability (HARA; first compound 0.5 µM): 1.01
- relative viability (HCC-366; first compound 0.005 µM): 0.456
- relative viability (HCC-366; first compound 0.01581 µM): 0.635
- relative viability (HCC-366; first compound 0.05 µM): 0.0527
- relative viability (HCC-366; first compound 0.1581 µM): 0.514
- relative viability (HCC-366; first compound 0.5 µM): 0.562
- relative viability (HCC-827; first compound 0.005 µM): 0.96
- relative viability (HCC-827; first compound 0.01581 µM): 0.962
- relative viability (HCC-827; first compound 0.05 µM): 0.966
- relative viability (HCC-827; first compound 0.1581 µM): 0.958
- relative viability (HCC-827; first compound 0.5 µM): 0.935
- relative viability (LC-2-ad; first compound 0.005 µM): 0.422
- relative viability (LC-2-ad; first compound 0.01581 µM): 0.489
- relative viability (LC-2-ad; first compound 0.05 µM): 0.538
- relative viability (LC-2-ad; first compound 0.1581 µM): 0.429
- relative viability (LC-2-ad; first compound 0.5 µM): 0.575
- relative viability (LOU-NH91; first compound 0.005 µM): 0.766
- relative viability (LOU-NH91; first compound 0.01581 µM): 0.742
- relative viability (LOU-NH91; first compound 0.05 µM): 0.807
- relative viability (LOU-NH91; first compound 0.1581 µM): 0.731
- relative viability (LOU-NH91; first compound 0.5 µM): 0.711
- relative viability (NCI-H1355; first compound 0.005 µM): 1.03
- relative viability (NCI-H1355; first compound 0.01581 µM): 1.15
- relative viability (NCI-H1355; first compound 0.05 µM): 1.02
- relative viability (NCI-H1355; first compound 0.1581 µM): 1.05
- relative viability (NCI-H1355; first compound 0.5 µM): 1.03
- relative viability (NCI-H1437; first compound 0.005 µM): 0.916
- relative viability (NCI-H1437; first compound 0.01581 µM): 0.93
- relative viability (NCI-H1437; first compound 0.05 µM): 0.892
- relative viability (NCI-H1437; first compound 0.1581 µM): 0.961
- relative viability (NCI-H1437; first compound 0.5 µM): 0.873
- relative viability (NCI-H1734; first compound 0.005 µM): 0.705
- relative viability (NCI-H1734; first compound 0.01581 µM): 0.681
- relative viability (NCI-H1734; first compound 0.1581 µM): 0.785
- relative viability (NCI-H1734; first compound 0.5 µM): 0.693
- relative viability (NCI-H1792; first compound 0.005 µM): 0.996
- relative viability (NCI-H1792; first compound 0.01581 µM): 1.04
- relative viability (NCI-H1792; first compound 0.05 µM): 0.911
- relative viability (NCI-H1792; first compound 0.1581 µM): 1
- relative viability (NCI-H1792; first compound 0.5 µM): 0.946
- relative viability (NCI-H2009; first compound 0.005 µM): 0.972
- relative viability (NCI-H2009; first compound 0.01581 µM): 1.05
- relative viability (NCI-H2009; first compound 0.05 µM): 1.1
- relative viability (NCI-H2009; first compound 0.1581 µM): 1.13
- relative viability (NCI-H2009; first compound 0.5 µM): 1.05
- relative viability (NCI-H2087; first compound 0.005 µM): 0.911
- relative viability (NCI-H2087; first compound 0.01581 µM): 0.766
- relative viability (NCI-H2087; first compound 0.05 µM): 0.873
- relative viability (NCI-H2087; first compound 0.1581 µM): 0.892
- relative viability (NCI-H2087; first compound 0.5 µM): 0.976
- relative viability (NCI-H2170; first compound 0.005 µM): 1.06
- relative viability (NCI-H2170; first compound 0.01581 µM): 1.28
- relative viability (NCI-H2170; first compound 0.05 µM): 1.21
- relative viability (NCI-H2170; first compound 0.1581 µM): 1.06
- relative viability (NCI-H2170; first compound 0.5 µM): 1.05
- relative viability (NCI-H2228; first compound 0.005 µM): 0.633
- relative viability (NCI-H2228; first compound 0.01581 µM): 0.553
- relative viability (NCI-H2228; first compound 0.05 µM): 0.573
- relative viability (NCI-H2228; first compound 0.1581 µM): 0.454
- relative viability (NCI-H2228; first compound 0.5 µM): 0.52
- relative viability (NCI-H2405; first compound 0.005 µM): 0.788
- relative viability (NCI-H2405; first compound 0.01581 µM): 0.948
- relative viability (NCI-H2405; first compound 0.05 µM): 0.824
- relative viability (NCI-H2405; first compound 0.1581 µM): 0.838
- relative viability (NCI-H2405; first compound 0.5 µM): 0.794
- relative viability (NCI-H596; first compound 0.005 µM): 1.02
- relative viability (NCI-H596; first compound 0.01581 µM): 0.985
- relative viability (NCI-H596; first compound 0.05 µM): 0.802
- relative viability (NCI-H596; first compound 0.1581 µM): 1.02
- relative viability (NCI-H596; first compound 0.5 µM): 1.01
- relative viability (NCI-H647; first compound 0.005 µM): 1.16
- relative viability (NCI-H647; first compound 0.01581 µM): 1.18
- relative viability (NCI-H647; first compound 0.05 µM): 1.42
- relative viability (NCI-H647; first compound 0.1581 µM): 0.874
- relative viability (NCI-H647; first compound 0.5 µM): 0.896
- relative viability (NCI-H661; first compound 0.005 µM): 1.12
- relative viability (NCI-H661; first compound 0.01581 µM): 0.964
- relative viability (NCI-H661; first compound 0.05 µM): 0.947
- relative viability (NCI-H661; first compound 0.1581 µM): 0.951
- relative viability (NCI-H661; first compound 0.5 µM): 1
- relative viability (SK-LU-1; first compound 0.005 µM): 0.846
- relative viability (SK-LU-1; first compound 0.01581 µM): 0.975
- relative viability (SK-LU-1; first compound 0.05 µM): 1.14
- relative viability (SK-LU-1; first compound 0.1581 µM): 0.894
- relative viability (SK-LU-1; first compound 0.5 µM): 0.834
- relative viability (SK-MES-1; first compound 0.005 µM): 0.953
- relative viability (SK-MES-1; first compound 0.01581 µM): 1.07
- relative viability (SK-MES-1; first compound 0.05 µM): 1.08
- relative viability (SK-MES-1; first compound 0.1581 µM): 0.953
- relative viability (SK-MES-1; first compound 0.5 µM): 0.978
